One compound from patent US6723333B1, “Moulded bodies made of thermoplastic polyurethane containing an active substance” (priority 1998, dated 2004) can be followed below.

In this assay the test system is sensor bacteria (E. coli—test strain). Nature of the assay: Bioimaging of released active substance by effect-dependent bioluminescence of sensor bacteria. It is filed as cell-based. The settings on record: after high temperatures of about 200° C. required for thermoplastic processing. On the procedure:
Microbiological evaluation and quantification of the release of active substance was performed using a new bioimaging technique. This method makes use of the selective effect-dependent bioluminescence of sensor bacteria (E. coli—test strain), in order to render visible the biological activity of the released active substance. The gyrase-inhibiting effect of ciprofloxacin was used in the system according to the invention, Texin® 5590 ciprofloxacin.
For imaging of the antibacterial effect, about 1 cm^2 sized samples of the active substance-containing material were placed in a petri dish and covered with a suspension of sensor bacteria in agarose. After an incubation period of about 30 minutes, the effect-dependent bioluminescence was assessed using a video-imaging system (e.g. EG&G Berthold, Luminograph LB 980). Antibiotic samples then appeared as luminescing areas.

`O=C(O)c1cn(C2CC2)c2cc(N3CCNCC3)c(F)cc2c1=O` [ciprofloxacin]: the “microbiological efficacy of the ciprofloxacin released from the polymer matrix” value is on record as “retained”.
